≈ marks a conversion by molar mass, not a printed value.
Columns and labels:
[1] = biological target: T1, Macrophage colony-stimulating factor 1 receptor (Homo sapiens, UniProt P07333); experiment: Inhibition of human FMS at 10 uM using poly[Glu:Tyr] (4:1) as substrate measured after 120 mins in presence of [gamma33P]ATP by P81 ion exchange chromatographic method relative to control
Cytochrome P450 3A4 = Cytochrome P450 3A4 (Homo sapiens, UniProt P08684); experiment: Inhibition of CYP3A4 in human liver microsomes using midazolam as substrate pretreated for 10 mins followed by substrate addition measured after 10 mins in presence of NADPH by LC-MS/MS method; type: ADME
Cytochrome P450 3A4, sequence (P08684 whole entry): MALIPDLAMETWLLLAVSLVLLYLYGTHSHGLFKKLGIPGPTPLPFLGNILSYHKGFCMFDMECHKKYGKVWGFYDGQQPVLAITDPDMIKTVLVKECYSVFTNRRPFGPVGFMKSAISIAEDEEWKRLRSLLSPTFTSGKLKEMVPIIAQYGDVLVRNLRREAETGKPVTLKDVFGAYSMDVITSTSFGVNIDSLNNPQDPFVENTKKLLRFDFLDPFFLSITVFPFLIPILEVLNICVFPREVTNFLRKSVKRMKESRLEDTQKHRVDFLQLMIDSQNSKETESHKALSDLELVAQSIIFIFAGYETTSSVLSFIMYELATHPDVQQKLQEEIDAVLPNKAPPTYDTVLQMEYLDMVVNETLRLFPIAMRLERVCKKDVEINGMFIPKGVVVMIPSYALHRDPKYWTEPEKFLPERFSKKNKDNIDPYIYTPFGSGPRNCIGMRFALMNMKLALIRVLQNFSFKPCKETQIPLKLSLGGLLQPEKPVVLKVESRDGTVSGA

[2] = biological target: T2, Tyrosine-protein kinase ITK/TSK (Homo sapiens) (UniProt Q08881); experiment: Inhibition of human ITK at 10 uM using myelin basic protein as substrate measured after 120 mins in presence of [gamma33P]ATP by P81 ion exchange chromatographic method relative to control
T2 sequence (whole entry): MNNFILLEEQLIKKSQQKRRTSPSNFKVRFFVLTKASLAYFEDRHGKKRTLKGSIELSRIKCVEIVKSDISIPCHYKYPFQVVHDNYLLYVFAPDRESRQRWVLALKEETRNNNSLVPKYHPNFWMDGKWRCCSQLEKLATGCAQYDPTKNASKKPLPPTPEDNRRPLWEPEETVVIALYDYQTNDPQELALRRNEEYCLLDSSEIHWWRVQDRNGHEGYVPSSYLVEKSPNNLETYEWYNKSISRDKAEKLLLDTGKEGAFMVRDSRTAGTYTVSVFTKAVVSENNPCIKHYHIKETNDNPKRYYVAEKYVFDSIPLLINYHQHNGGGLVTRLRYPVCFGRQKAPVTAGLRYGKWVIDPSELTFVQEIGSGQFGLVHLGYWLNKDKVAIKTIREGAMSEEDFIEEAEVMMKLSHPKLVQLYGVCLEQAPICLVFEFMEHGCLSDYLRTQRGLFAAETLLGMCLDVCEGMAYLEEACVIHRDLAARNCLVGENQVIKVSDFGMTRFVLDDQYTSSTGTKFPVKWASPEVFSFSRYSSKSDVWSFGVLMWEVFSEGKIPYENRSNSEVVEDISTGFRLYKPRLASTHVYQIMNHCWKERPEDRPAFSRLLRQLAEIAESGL

[3] = biological target: T3, Tyrosine-protein kinase ITK/TSK (Homo sapiens, UniProt Q08881); experiment: Inhibition of human ITK using myelin basic protein as substrate measured after 120 mins in presence of [gamma33P]ATP by P81 ion exchange chromatographic method
T3 sequence (Q08881 whole entry): T2 sequence (whole entry)

[4] = biological target: Tyrosine-protein kinase BTK (Homo sapiens, UniProt Q06187); experiment: Inhibition of human BTK using KVEKIGEGTYGVVYK as substrate measured after 120 mins in presence of [gamma33P]ATP by P81 ion exchange chromatographic method
Tyrosine-protein kinase BTK, sequence (Q06187 whole entry): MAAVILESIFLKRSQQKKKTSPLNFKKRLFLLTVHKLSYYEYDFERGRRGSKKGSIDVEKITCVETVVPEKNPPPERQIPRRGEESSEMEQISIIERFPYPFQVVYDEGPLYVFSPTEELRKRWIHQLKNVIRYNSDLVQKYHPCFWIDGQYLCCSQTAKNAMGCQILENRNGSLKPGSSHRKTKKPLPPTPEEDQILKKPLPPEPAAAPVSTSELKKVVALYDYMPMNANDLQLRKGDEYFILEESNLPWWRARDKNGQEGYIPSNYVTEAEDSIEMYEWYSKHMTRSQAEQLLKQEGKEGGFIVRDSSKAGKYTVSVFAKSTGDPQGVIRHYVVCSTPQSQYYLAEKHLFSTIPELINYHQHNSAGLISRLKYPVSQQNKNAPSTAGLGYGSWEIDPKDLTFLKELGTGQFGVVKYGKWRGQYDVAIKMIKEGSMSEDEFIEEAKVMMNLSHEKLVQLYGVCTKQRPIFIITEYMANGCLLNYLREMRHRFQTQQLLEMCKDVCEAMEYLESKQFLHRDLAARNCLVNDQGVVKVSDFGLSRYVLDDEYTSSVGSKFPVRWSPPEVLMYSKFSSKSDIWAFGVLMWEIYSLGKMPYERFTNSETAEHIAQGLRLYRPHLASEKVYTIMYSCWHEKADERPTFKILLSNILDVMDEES

[5] = biological target: T4, Tyrosine-protein kinase JAK3 (Homo sapiens) (UniProt P52333); experiment: Inhibition of human JAK3 at 10 uM using GEEEEYFELVKKKK as substrate measured after 120 mins in presence of [gamma33P]ATP by P81 ion exchange chromatographic method relative to control
T4 sequence (whole entry): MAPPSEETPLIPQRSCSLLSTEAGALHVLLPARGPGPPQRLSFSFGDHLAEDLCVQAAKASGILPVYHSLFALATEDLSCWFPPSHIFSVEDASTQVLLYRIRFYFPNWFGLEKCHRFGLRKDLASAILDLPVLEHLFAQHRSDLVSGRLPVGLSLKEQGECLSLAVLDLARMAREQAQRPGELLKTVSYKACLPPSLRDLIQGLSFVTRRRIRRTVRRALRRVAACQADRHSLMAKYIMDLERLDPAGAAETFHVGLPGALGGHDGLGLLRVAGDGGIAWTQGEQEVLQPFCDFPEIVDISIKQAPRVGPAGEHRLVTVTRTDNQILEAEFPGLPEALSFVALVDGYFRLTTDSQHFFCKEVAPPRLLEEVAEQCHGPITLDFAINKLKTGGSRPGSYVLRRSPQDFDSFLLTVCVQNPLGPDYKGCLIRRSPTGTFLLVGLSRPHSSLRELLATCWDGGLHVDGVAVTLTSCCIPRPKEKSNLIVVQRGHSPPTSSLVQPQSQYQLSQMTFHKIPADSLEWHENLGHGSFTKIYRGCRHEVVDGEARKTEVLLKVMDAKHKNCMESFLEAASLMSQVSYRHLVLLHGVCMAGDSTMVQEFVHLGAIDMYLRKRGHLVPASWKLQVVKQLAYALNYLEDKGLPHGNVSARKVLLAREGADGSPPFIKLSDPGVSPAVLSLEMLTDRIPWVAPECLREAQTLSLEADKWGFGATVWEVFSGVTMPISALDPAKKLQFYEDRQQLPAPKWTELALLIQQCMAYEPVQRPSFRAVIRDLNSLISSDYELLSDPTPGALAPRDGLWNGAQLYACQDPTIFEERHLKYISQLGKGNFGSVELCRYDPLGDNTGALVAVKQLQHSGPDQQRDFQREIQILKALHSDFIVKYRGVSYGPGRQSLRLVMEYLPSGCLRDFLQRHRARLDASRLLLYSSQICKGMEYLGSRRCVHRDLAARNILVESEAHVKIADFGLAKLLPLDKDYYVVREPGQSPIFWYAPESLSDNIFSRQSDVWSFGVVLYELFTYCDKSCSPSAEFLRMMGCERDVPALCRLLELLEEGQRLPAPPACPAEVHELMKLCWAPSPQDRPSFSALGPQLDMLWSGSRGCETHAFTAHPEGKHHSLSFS

[6] = Kinetic solubility of the compound at pH 7.4; type: physicochemical; conditions: buffer, read-out: Kinetic_solubility
[7] = Intrinsic clearance in human liver microsomes at 1 uM measured after 60 mins in presence of NADPH by LC-MS/MS analysis; type: ADME, microsome; conditions: read-out: CLH
VEGFR2 = VEGFR2 (Homo sapiens, UniProt P35968); experiment: Inhibition of human VEGFR2 at 10 uM using poly[Glu:Tyr] (4:1) as substrate measured after 120 mins in presence of [gamma33P]ATP by P81 ion exchange chromatographic method relative to control; conditions: human VEGFR2 kinase, probe poly[Glu:Tyr] (4:1)
VEGFR2, sequence (P35968 whole entry): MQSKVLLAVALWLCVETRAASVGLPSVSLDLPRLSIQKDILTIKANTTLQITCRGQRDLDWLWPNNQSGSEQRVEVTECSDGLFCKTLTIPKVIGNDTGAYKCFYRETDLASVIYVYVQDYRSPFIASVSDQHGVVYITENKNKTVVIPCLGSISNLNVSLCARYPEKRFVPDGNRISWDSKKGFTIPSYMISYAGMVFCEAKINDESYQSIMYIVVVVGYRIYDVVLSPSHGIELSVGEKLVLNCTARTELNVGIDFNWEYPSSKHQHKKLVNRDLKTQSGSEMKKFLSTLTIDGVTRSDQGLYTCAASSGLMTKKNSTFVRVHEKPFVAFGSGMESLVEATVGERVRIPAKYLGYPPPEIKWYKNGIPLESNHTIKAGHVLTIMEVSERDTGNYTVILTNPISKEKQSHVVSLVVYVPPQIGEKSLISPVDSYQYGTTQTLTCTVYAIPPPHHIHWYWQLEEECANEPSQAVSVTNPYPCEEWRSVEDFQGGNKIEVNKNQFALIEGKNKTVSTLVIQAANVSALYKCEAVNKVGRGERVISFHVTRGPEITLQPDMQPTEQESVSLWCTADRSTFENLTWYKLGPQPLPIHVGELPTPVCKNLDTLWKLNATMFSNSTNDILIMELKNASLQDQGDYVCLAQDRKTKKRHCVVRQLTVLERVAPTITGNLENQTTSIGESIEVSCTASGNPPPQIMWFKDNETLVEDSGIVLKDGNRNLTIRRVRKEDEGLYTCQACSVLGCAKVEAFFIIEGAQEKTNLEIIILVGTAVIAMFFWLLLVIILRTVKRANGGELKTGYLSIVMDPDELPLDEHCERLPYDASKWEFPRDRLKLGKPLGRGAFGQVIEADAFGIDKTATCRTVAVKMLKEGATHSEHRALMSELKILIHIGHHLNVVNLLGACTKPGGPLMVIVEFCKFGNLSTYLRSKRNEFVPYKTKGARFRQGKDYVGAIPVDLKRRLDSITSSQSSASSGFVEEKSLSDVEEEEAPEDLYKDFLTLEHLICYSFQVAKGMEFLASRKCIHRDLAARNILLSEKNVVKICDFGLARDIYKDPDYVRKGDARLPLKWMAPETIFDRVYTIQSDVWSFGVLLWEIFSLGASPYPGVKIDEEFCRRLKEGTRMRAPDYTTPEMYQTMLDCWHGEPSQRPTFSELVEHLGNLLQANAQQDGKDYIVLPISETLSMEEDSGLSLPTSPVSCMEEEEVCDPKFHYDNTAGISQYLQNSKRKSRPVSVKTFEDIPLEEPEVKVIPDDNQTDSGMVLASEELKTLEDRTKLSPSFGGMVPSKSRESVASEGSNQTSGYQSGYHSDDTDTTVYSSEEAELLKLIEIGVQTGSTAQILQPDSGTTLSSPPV

[8] = Apparent permeability from apical to basolateral side in MDCK2-MDR1 cells at 2 uM after 2.5 hrs LC-MS/MS analysis; type: ADME, cell-based, Canis lupus familiaris; conditions: dog, MDCK-MDR1
[9] = biological target: T1, Macrophage colony-stimulating factor 1 receptor; experiment: Inhibition of human FMS using poly[Glu:Tyr] (4:1) as substrate measured after 120 mins in presence of [gamma33P]ATP by P81 ion exchange chromatographic method
Cytochrome P450 2C9 = Cytochrome P450 2C9 (Homo sapiens, UniProt P11712); experiment: Inhibition of CYP2C9 in human liver microsomes using diclofenac as substrate pretreated for 10 mins followed by substrate addition measured after 10 mins in presence of NADPH by LC-MS/MS method; type: ADME
Cytochrome P450 2C9, sequence (P11712 whole entry): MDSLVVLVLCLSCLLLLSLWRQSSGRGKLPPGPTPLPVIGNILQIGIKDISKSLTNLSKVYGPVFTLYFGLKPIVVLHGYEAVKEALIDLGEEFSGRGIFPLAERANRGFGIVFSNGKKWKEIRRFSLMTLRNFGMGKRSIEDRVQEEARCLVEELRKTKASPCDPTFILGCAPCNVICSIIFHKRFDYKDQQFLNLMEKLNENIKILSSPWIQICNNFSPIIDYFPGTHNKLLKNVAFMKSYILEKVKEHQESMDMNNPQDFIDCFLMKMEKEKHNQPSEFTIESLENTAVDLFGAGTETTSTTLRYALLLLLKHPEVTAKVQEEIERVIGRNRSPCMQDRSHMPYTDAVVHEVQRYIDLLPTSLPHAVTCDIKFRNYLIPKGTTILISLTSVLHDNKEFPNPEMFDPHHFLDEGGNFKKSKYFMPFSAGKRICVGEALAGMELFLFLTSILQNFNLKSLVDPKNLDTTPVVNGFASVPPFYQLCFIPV

[10] = Intrinsic clearance in mouse liver microsomes at 1 uM measured after 60 mins in presence of NADPH by LC-MS/MS analysis; type: ADME, microsome; conditions: read-out: CLH
Cytochrome P450 2C19 = Cytochrome P450 2C19 (Homo sapiens, UniProt P33261); experiment: Inhibition of CYP2C19 in human liver microsomes using S-mephenytoin as substrate pretreated for 10 mins followed by substrate addition measured after 10 mins in presence of NADPH by LC-MS/MS method; type: ADME
Cytochrome P450 2C19, sequence (P33261 whole entry): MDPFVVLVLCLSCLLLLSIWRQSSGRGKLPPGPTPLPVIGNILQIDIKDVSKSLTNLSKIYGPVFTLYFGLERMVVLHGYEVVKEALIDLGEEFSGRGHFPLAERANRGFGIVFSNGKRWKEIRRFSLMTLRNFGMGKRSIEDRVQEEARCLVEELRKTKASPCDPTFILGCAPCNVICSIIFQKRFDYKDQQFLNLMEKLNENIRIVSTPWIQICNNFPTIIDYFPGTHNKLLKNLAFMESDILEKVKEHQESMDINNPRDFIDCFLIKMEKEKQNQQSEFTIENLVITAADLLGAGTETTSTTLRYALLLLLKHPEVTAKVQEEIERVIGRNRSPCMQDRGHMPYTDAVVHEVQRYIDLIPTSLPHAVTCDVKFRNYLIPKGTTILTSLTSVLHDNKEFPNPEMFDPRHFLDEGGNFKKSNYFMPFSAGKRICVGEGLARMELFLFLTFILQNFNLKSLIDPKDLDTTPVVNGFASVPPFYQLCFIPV

T1 sequence (P07333 whole entry): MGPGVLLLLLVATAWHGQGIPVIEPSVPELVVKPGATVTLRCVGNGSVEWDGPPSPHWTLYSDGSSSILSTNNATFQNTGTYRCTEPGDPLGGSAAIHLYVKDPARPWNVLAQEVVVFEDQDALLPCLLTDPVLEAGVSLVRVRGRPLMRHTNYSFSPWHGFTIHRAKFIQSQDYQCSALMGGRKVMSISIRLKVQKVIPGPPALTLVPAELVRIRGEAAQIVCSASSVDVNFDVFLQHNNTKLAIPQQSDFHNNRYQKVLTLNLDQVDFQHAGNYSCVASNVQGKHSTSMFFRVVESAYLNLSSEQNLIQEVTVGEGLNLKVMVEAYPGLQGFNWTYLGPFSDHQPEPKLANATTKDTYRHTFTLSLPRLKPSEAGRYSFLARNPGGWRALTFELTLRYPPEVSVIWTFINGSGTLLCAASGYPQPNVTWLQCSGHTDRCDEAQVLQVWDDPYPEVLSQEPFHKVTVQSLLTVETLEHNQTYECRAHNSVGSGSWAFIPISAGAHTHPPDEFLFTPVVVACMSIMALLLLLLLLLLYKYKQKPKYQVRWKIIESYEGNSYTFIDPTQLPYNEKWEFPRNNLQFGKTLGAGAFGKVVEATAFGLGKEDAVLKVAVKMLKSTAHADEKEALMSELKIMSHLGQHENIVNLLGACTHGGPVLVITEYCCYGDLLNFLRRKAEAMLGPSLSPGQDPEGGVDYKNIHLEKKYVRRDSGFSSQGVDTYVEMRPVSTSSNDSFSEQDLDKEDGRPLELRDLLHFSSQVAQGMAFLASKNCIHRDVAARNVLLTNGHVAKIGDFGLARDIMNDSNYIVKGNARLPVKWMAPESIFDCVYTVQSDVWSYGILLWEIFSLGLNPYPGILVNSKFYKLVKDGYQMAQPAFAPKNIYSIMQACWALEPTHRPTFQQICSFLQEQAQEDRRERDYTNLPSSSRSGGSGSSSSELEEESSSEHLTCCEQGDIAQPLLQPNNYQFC

| inhibition [1] | IC50 (Cytochrome P450 3A4) | inhibition [2] | IC50 [3] | IC50 [4] | inhibition [5] | solubility kinetic [6] | CLint scaled at 1 µM [7] | inhibition at 2 h, 10 µM (VEGFR2) | Papp A→B at 2.5 h, 2 µM [8] | IC50 [9] | IC50 (Cytochrome P450 2C9) | CLint scaled at 1 µM [10] | IC50 (Cytochrome P450 2C19) | Compound |
| --- | --- | --- | --- | --- | --- | --- | --- | --- | --- | --- | --- | --- | --- | --- |
| 78% | 3 µM | 16% | > 10 µM | > 10 µM | 12% | < 0.5 µg/mL | 41 mL/min/kg | 23% | 0.35 ×10⁻⁶ cm/s | 1.1 µM | 0.9 µM | 97 mL/min/kg | 1.7 µM | C=CC(=O)Nc1cccc(C)c1Nc1ncc2cc(-c3c(Cl)c(OC)cc(OC)c3Cl)ccc2n1 |
| 6% | 13.3 µM | 0% | > 10 µM | > 10 µM | 9% | 78 µg/mL (≈ 179 µM) | 18 mL/min/kg | 11% | 7.3 ×10⁻⁶ cm/s | > 10 µM | 29.1 µM | 474 mL/min/kg | 19.8 µM | C=CC(=O)N[C@H]1COC[C@H]1Nc1ncc(OCc2c(F)c(OC)cc(OC)c2F)cn1 |
| 4% | 6.9 µM | 9% | > 10 µM | > 10 µM | 7% | 39 µg/mL (≈ 85.4 µM) | 165 mL/min/kg | 19% | 8.6 ×10⁻⁶ cm/s | > 10 µM | 3.7 µM | 9640 mL/min/kg | 1.5 µM | C=CC(=O)Nc1cccc(C)c1Nc1ncc(OCc2c(F)c(OC)cc(OC)c2F)cn1 |
